# Experimental data: US20250032580A1, “USE OF ADNF POLYPEPTIDES IN THERAPY” (RAMOT AT TEL-AVIV UNIVERSITY LTD., priority 2021, published 2025)
# How the values were obtained:
# [1] = system: Tyr mice; assay: Developmental milestone assessment of Tyr mouse pups; type: in vivo; design: key to NAP efficacy: global developmental delays: corrections by NAP treatment (+)
# Procedure: Animals—Animals were housed under a 12-hour light/dark cycle, with food and water ad-libitum. Mouse pups were subcutaneously administrated with NAP [having an amino acid sequence NAPVSIPQ (SEQ ID NO: 2), 25 μg NAP/1 ml saline] as described (8, 12). At 21 days of age mice were administered daily intranasal NAP in vehicle solution (“DD”—7.5 mg/ml of NaCl, 1.7 mg/ml of citric acid, 3 mg/ml of disodium phosphate dihydrate, and 0.2 mg/ml of 50% benzalkonium chloride solution) (0.5 μg NAP/5p1 DD) (8, 9, 12, and U.S. Pat. No. 10,912,819 to Gozes). These mice continued to behavioral analysis as described hereinbelow. The noninvasive intranasal route was chosen as these experiments required daily handling and administration. Age (weeks) of mice during behavioral experiments (mean±SEM) was as follows: Catwalk-9.23±0.15, grooming-10±0.15, social approach-10.5±0.12, odor-discrimination-12.12±0.13, hanging-wire-13±0.14, hotplate-13.18±0.13. Group size was determined following previous experiments (12). Pups were randomly allocated to either the NAP or DD group according to sex and genotype. All procedures involving animals were conducted under the supervision and approval of the institutional animal care and use committee of Tel Aviv University and the Israeli Ministry of Health.
# Developmental milestone assessment and fostering—This experiment included animals from 16 litters in 2 experimental batches. It was performed as previously described (12) with slight modifications. Experimenters were blinded to sex and genotype during experimental procedures. Sexes were grouped if no statistically significant sex differences were discovered.
# Developmental milestone assessment: At p1 Tyr pups were tattooed and genotyped for the presence of the Tyr718 mutation and SRY as described above. The same day pups were randomized to either NAP or Saline treatment groups according to genotype and sex results and developmental milestone assessment was performed from p1 to p21. As animal randomization ended up with unequal male/female ratios for certain groups and no statistical differences were found between the sexes in any of the 4 treatment groups (T test), the sexes could not be separated, [That is except for eye opening, where a significant difference was observed between the sexes in the Tyr group (P=0.047, no significance in the other three treatment groups)]. Pup paws were tattooed using a 31-gauge needle and tattoo ink (Ketchum Manufacturing Co., catalog 329AA) for identification on P1 and, until P21, underwent daily measurements for length and weight and observation for eye opening. Pups were injected daily with NAP, 1 hour prior to the tests as previously described^1.
# Briefly, for ear twitch reflex, a cotton tip was gently brushed against the tip of the ear three times, between postnatal days 7-15 or until the pup responded correctly for two consecutive days. For air righting reflex, the pup was held up-side down and released ˜10.5 cm above the cage, containing 5 cm of shavings. The test was performed between postnatal days 8-21 or until the pup landed on the shavings with all four paws, for two consecutive days. For surface righting reflex, pups were placed on their backs on a level surface, the test was performed between postnatal days 1-13 until the pups was able to right itself with all four paws on the surface in under a second for two consecutive days. For eye opening, mice were observed daily until both eyes were open (eyelids separated completely). For auditory startle, the pup was placed on a level surface and the experimenter clapped loudly twice until a visible startle response was evident for 2 consecutive days. The test was performed between days 7-18. For cliff aversion, pups were placed on the edge of a small box (approx. 4 cm in height) with both paws protruding over the edge of the box. Pups were allowed 30 sec to avoid the cliff and move themselves backwards. […]
# [2] = system: Tyr mice; assay: Behavioral assessments (odor discrimination and others); type: in vivo, mouse; design: key to NAP efficacy: cognitive impairments, behavioral deficits: corrections by NAP treatment (+)
# Procedure: Animals—Animals were housed under a 12-hour light/dark cycle, with food and water ad-libitum. Mouse pups were subcutaneously administrated with NAP [having an amino acid sequence NAPVSIPQ (SEQ ID NO: 2), 25 μg NAP/1 ml saline] as described (8, 12). At 21 days of age mice were administered daily intranasal NAP in vehicle solution (“DD”—7.5 mg/ml of NaCl, 1.7 mg/ml of citric acid, 3 mg/ml of disodium phosphate dihydrate, and 0.2 mg/ml of 50% benzalkonium chloride solution) (0.5 μg NAP/5p1 DD) (8, 9, 12, and U.S. Pat. No. 10,912,819 to Gozes). These mice continued to behavioral analysis as described hereinbelow. The noninvasive intranasal route was chosen as these experiments required daily handling and administration. Age (weeks) of mice during behavioral experiments (mean±SEM) was as follows: Catwalk-9.23±0.15, grooming-10±0.15, social approach-10.5±0.12, odor-discrimination-12.12±0.13, hanging-wire-13±0.14, hotplate-13.18±0.13. Group size was determined following previous experiments (12). Pups were randomly allocated to either the NAP or DD group according to sex and genotype. […]
# Novel object recognition: Briefly, the open field test was used for the first day of habituation since both tests are conducted in the same arena. […] The time spent sniffing/touching each object was measured using the EthoVision XT video tracking system and software (Noldus Inc. Leesburg, VA). Data were analyzed using the discrimination capacity formula: D2=(b−a)/(a+b), where ‘a’ designated the time of exploration of the familiar object and ‘b’ designated the time of exploration of the novel object.
# Social approach: A plexiglas box was divided into three adjacent chambers, each 20 cm (length)×40.5 cm (width)×22 cm (height), separated by two removable doors. […] The next day, each subject mouse was tested in an experiment with three phases, (measured with a simple timer): I and II (5 minutes long), the habituation phases (ensuring no bias), and III (10 minutes long), the experimental phase. […]
# [3] = system: Tyr mice; assay: AT8 (hyperphosphorylated Tau) immunohistochemistry; type: in vivo, mouse; design: key to NAP efficacy: tauopathy, hyperphosphorylated Tau deposits: corrections by NAP treatment (+)
# Procedure: AT8 Immunohistochemistry—experiment was performed as previously described (100). Mice were treated for 6 weeks with daily intranasal DD/NAP and were euthanized at 10.21±0.05 weeks of age.
# [4] = Tyr mouse, first symbol of cell
# [5] = male Tyr mice, 6 weeks daily intranasal NAP
smiles,measurement,setting,value
"CC[C@H](C)[C@H](NC(=O)[C@H](CO)NC(=O)[C@@H](NC(=O)[C@@H]1CCCN1C(=O)[C@H](C)NC(=O)[C@@H](N)CC(N)=O)C(C)C)C(=O)N1CCC[C@H]1C(=O)N[C@@H](CCC(N)=O)C(=O)O [NAP, NAPVSIPQ]",Rooting reflex,"[1]; Tyr mice, data not shown",induced rooting
same,NAP efficacy: global developmental delays,[1]; [4],+/+
same,"Surface-righting, first day of acquisition","[1]; Tyr pups, daily s.c. NAP, WT 8.69±0.42, Tyr 10.14±0.36, mean±SEM",8.81±0.33
same,"Air-righting, first day of acquisition","[1]; Tyr pups, daily s.c. NAP, WT 12.96±0.28, Tyr 15.29±0.15, mean±SEM",14.63±0.38
same,Body weight,"[1]; WT female mice, data not shown",no effect
same,Eye opening,"[1]; WT females, data not shown",no NAP effect
same,Developmental milestones in WT littermates,"[1]; WT littermates, data not shown",no effect on WT littermates except for the cliff aversion response
same,Body weight,"[1]; female Tyr pups, P1-P21",beneficial effect was visible from P10 and reached significance at P20-21
same,Eye opening (day),"[1]; female Tyr pups, Tyr 16±0.37, WT 14.93±0.43",14.78±0.46
same,Eye opening,"[1]; males, data not shown",No genotype/NAP effect
same,Odor discrimination,"[2]; Tyr mice, daily intranasal NAP, data not shown",NAP reversal in females
same,"NAP efficacy: cognitive impairments, behavioral deficits","[2]; Tyr mouse (odor), first symbol of cell",+(odor)/+(8)
same,"Behavioral, motor, social and sensory traits","[2]; WT mice, data not shown",varied minor effects
same,Combined AT8- and AT180-positive cells,"[3]; Tyr mice, both sexes, data not shown",correction by NAP in both sexes
same,"NAP efficacy: tauopathy, hyperphosphorylated Tau deposits",[3]; [4],+/+
same,AT8 staining,"[3]; WT males, data not shown",did not display a NAP effect
same,Decrease of AT8 positive cells in the hippocampus,[3]; [5],~2.57 fold
same,Reversal of AT8 staining in the visual cortex,[3]; [5],~2 fold
